Assay results from ChEMBL document CHEMBL3507680, “University of Dundee, Gates Library screen for HepG2 cell viability”.

Test: Human HepG2 cell viability assay in 384 well format
Type: toxicity, cell-based
Design: dose 125 nL, time 70.5 hour; cytotoxicity at 70.5 h: concentration not given beside the values
Conditions: HepG2 cells, read-out: Inhibition

Compound | cytotoxicity at 70.5 h
CC(C)c1nnc2sc(CC3CCS(=O)(=O)CC3)nn12 | -8.54%
Cc1nc(CN2C[C@@H](NC(=O)C3CCC3)[C@H]3COC[C@H]32)cs1 | -5.49%
Cc1cc(C(=O)N(C)Cc2cnn(C)c2C)n(C)n1 | 14%
CC(CCc1ncnn1Cc1cccc(Cl)c1)N1CCCC1 (stereo unspecified) | -9.23%
CC(C)(C)n1ncc2c1NC(=O)CC2c1ccccc1 (stereo unspecified) | -7.73%
COCCN1CCN(C(=O)C(c2cccc(F)c2)N(C)C)CC1 (stereo unspecified) | 1.27%
CS(=O)(=O)N1C[C@H]2C[C@H](C(=O)N3CCOCC3)[C@@H](C1)O2 | -6.47%
O=S(=O)(c1cn[nH]c1)N1CCCC1c1cc[nH]n1 (stereo unspecified) | -7.61%
COc1ccc(Cl)cc1C(=O)NC(CC(=O)O)c1cccs1 (stereo unspecified) | -11%
CN(C)Cc1nnc(C2CCN(C(=O)CCc3cccs3)CC2)n1C | -8.36%
CC(=O)c1ccc(OCC(=O)c2cccn2C)cc1 | -0.625%
Cc1ccc(CCNC(=O)Nc2cc(C(F)(F)F)c[nH]c2=O)o1 | -4.56%
COc1ccc(CN2C[C@@H]3CCCO[C@@H]3[C@H](NC(=O)CC3CC3)C2)cc1 | 3.18%
COc1ccc(OC)c(Sc2ncccc2C(=O)NCCSC)c1 | -8.11%
O=C(NCCO)Nc1ccc(Cl)cc1-n1cccc1 | 0.77%
CN(C)[C@@H]1CCN(C(=O)NC2CCCC2)[C@H]1Cc1cnn(C)c1 | -15.8%
O=S(=O)(NC1=NCN(CCc2cccs2)CN1)c1ccccc1 | -19.9%
Cc1[nH]ncc1C(C)NCc1cccnc1 (stereo unspecified) | 5.33%
CCOc1cc(F)ccc1NC(=O)N(C)Cc1cnn(C)c1 | -5.78%
C[C@@H]1CN(c2nc(N)nc3c2CCC3)CC[C@@]1(O)C1CCC1 | 4.77%
CCc1noc(C2CCCCN2C(=O)c2ccn(C3CCCC3)n2)n1 (stereo unspecified) | 31%

Compound | cytotoxicity at 70.5 h
CN1CCN(C(=O)N2CCCC2)Cc2cccnc21 | -6.35%
Cc1nccc(N2CCCC(c3nnc(Cn4ccnc4C)n3C)C2)n1 (stereo unspecified) | 16.3%
CC(C)N(CCS(C)(=O)=O)Cc1csc(Cc2ccc(Cl)cc2)n1 | 3.51%
CNC(=O)c1ccc(C2CN(C(=O)c3coc(C)n3)CCO2)nc1 (stereo unspecified) | -11.4%
CCNc1cc2c(nn1)CCN(C(=O)C(C)c1c(C)noc1C)C2 (stereo unspecified) | -4.66%
O=C(O)c1cc(S(=O)(=O)Nc2ccccc2)cc2c1OCCO2 | 4.5%
COc1ccc(C(=O)CCC(=O)NCc2c(C)noc2C)cc1F | 23.7%
Cc1cc(C(=O)N2CCc3nnc(N)cc3C2)c(C)n1-c1cccnc1 | -1.23%
COc1ccc(F)cc1CN1CCCC1Cn1nc(C)nc1C (stereo unspecified) | -1.67%
Cc1csc(CNC(=O)NCC(O)c2ccc(F)cc2F)n1 (stereo unspecified) | 5.96%
COC(=O)CC1CN(Cc2c(Cl)ccc3cccnc23)CCO1 (stereo unspecified) | -12.3%
CCNC(=O)CN1CCC(OCC2CCCO2)CC1 (stereo unspecified) | -6.63%
CC(C)c1cc(NCC(O)c2ccc(F)cc2)n2nccc2n1 (stereo unspecified) | 0.769%
COCCOc1ncccc1C(=O)N1CCCC(n2ccnc2C)C1 (stereo unspecified) | -13.5%
Cc1nc(C)n(CC2CCCN2CCC(=O)N2CCCCC2)n1 (stereo unspecified) | -5.35%
CCOC(=O)c1coc(N2CCN(C(=O)c3cccc(OC)c3)CC2)n1 | -8.88%
CCSc1ncc(CN2CCN(c3ccc(C#N)cc3)C(=O)C2)cn1 | -8.4%
O=C1CCCN1C1CCCN(CCOc2ccc(F)cc2)C1 (stereo unspecified) | -6.91%
O=C(c1c2c(NCC3CC3)ncnc2n2ccccc12)N1CCCC1 | 0.851%
CCCNC(=O)CNC(=O)c1scnc1C | 3.25%
CCc1nc(C)c(C2CC(=O)Nc3c2c(-c2cccnc2)nn3C)[nH]1 (stereo unspecified) | -5.87%

Compound | cytotoxicity at 70.5 h
Cc1cc(CC(=O)N(C)Cc2cccc(OC(C)C)c2)n[nH]1 | -9.38%
Cc1nc(C)c(C(C)NCc2c(C)nn(C)c2N(C)C)s1 (stereo unspecified) | -6.29%
Cc1ncsc1C(=O)OCCN1CCCc2ccccc21 | -22.3%
Cc1nc(CNC(=O)C(C)(C)c2ccc(F)cc2)no1 | 0.937%
Cc1nnc(Nc2cccc(C3CCN(CCO)CC3)n2)s1 | -13.5%
CCOC(=O)N1CCNC(c2cccs2)C1 (stereo unspecified) | 21.8%
N#Cc1ccc2c(c1)CN(C(=O)c1nc[nH]n1)C2c1cnco1 (stereo unspecified) | -2.48%
Cc1cn2c(n1)CCC(NC(=O)c1cc(C3CC3)[nH]n1)C2 (stereo unspecified) | -4.74%
Cc1ccc(C2CSCCN2C(=O)c2ccc(C(N)=O)cc2)o1 (stereo unspecified) | -9.63%
COc1ccccc1NC(=O)NCc1nnc(SC)n1C | -5.92%
COc1ccc(-c2cnc(N(C)C)nc2C2CN(C(C)=O)CCO2)cc1 (stereo unspecified) | -11.5%
CCc1cnc(C)nc1NC1CC(=O)N(CC2CCCCC2)C1 (stereo unspecified) | -8.14%
COc1cccc(CN2CCC3(CC2)CCN(c2ncccn2)C3)c1 | 2.21%
CC(C)CN1C(=O)CC[C@H]2CN(C(=O)c3ncc[nH]3)CC[C@H]21 | -0.867%
COC(C)(C)CNC(=O)N1CCC(n2ccc(C(F)(F)F)n2)CC1 | -76.1%
COc1cccc(S(=O)(=O)CCN2CCC3(CC2)OCCO3)c1 | -18.5%
CSc1ccc(C)c(C(=O)Nc2c(C(N)=O)n[nH]c2C)c1 | -5.86%
CC(C)(C)n1c(NC(=O)CNC(=O)NC2CC2)nc2ccccc21 | 1.24%
O=C(c1ccc[nH]1)N1CC2(CCN(c3nccs3)C2)C1 | -3.73%
O=C(NCCCn1ccnc1)N1CCCC1c1ccncc1 (stereo unspecified) | -1.54%
CC(=O)N1CCC2(CC1)COCCN2Cc1ccc(F)cc1 | -0.157%

Compound | cytotoxicity at 70.5 h
CCc1nc(C2CCCN2C(=O)c2ccc3c(c2)nnn3C)no1 (stereo unspecified) | 16.3%
CC(NC(=O)NCc1cccs1)c1ccc2c(c1)CCC(=O)N2 (stereo unspecified) | -4.6%
CS(=O)(=O)Cc1nc(CNc2ccc(F)c(F)c2)cs1 | -6.66%
Cc1cc(CNC(=O)Cc2cccs2)ccc1S(C)(=O)=O | 4.24%
CN(C)S(=O)(=O)N1CCC2(CC1)CC(OCC1CC1)CO2 (stereo unspecified) | -4.38%
COc1ccccc1[C@@H]1CN(Cc2ccc3nsnc3c2)C[C@H]1C(=O)O | -5.24%
CC(=O)NC(C)C(=O)NCc1ccc(N2CCNC(=O)C2)cc1 (stereo unspecified) | -15.7%
CS(=O)(=O)NC(=O)c1nnn(-c2cccc(F)c2)c1C1CC1 | -7.64%
CN(C)S(=O)(=O)c1ccc2c(c1)N(Cc1nccn1C)CCC2 | -6.79%
COCCN1C(=O)[C@H]2CC[C@@H]1CN(Cc1nnc(-c3ccccc3)o1)C2 | -4.89%
COCCN1CCN(C(=O)c2ccccc2C(C)=O)[C@H]2CS(=O)(=O)C[C@H]21 | -5.79%
CNC(=O)CCc1cc(C)nc(C2CCCCN2)n1 (stereo unspecified) | -4.98%
CC1=Nc2c(c(=O)[nH]n2C2CCOCC2)C(c2cccc(Br)c2)S1 (stereo unspecified) | 4.78%
COc1cccc(OCCc2nnc(NC(C)=O)s2)c1 | -6.24%
CC(C)(CN1CCCC1)CN1CCC(Cn2cc(C3CC3)nn2)CC1 | -9.26%
O=C(CCSC1CCc2ccccc2NC1=O)NCCCO (stereo unspecified) | -12.2%
Cc1noc(C)c1CCC(=O)N1CCOCC1CC(=O)N1CCCC1 (stereo unspecified) | 1.48%
Cc1cc(-c2ccc(=O)n(CCNC(=O)C3CCC3)n2)c(C)o1 | 15.6%
